In patent US20090247511A1, “SYNERGISTIC INSECTICIDE AND FUNGICIDE MIXTURES” (BAYER CROPSCIENCE AG, priority 2006, published 2009):

How the values were obtained:
[1] = tested on: Myzus persicae; assay: Myzus persicae test (cabbage leaf dip, kill rate, Colby synergy); assay type: in vivo
[2] = tested on: Phaedon cochleariae larvae; assay: Phaedon cochleariae larvae test (cabbage leaf dip, kill rate, Colby synergy)

Cn1cc(C(=O)Nc2ccccc2C2CC2C2CC2)c(C(F)F)n1 (stereo not drawn) [Compound (I-4)]
0%: Kill in % after 1d ([1]; Table A1, 200 ppm) | Kill in % after 1d ([1]; Table A2, 200 ppm) | Kill in % after 4d ([2]; Table B1, 200 ppm) | Kill in % after 6d ([2]; Table B2, 200 ppm, after 6 d) | Kill in % after 4d ([2]; Table B3, 200 ppm) | Kill in % after 4d ([2]; Table B3, 400 ppm)
